Molecules are shown by their SMILES.

The assay concerns the target Dihydrofolate reductase (Rattus norvegicus) (UniProt Q920D2).
With `Nc1nc(N)c2c(/C=C\c3ccc4ccccc4c3)cccc2n1`, the log(1/C) amounted to 6.52.

Turning to `Cc1c(NC(=O)C(Sc2ccc3ccccc3c2)C(C)C)ccc2nc(N)nc(N)c12` (stereo unspecified), the log(1/C) was determined as 7.68.

`Nc1nc(N)c2cc(NCc3ccc(Cl)c(Cl)c3)ccc2n1` yielded a log(1/C) of 7.74.

With `Nc1nc(S)nc2ccc(Sc3ccc4ccccc4c3)cc12`, the log(1/C) was 5.52.

In turn, `Nc1nc(N)c2c(Sc3ccc(Cl)c(Cl)c3)cccc2n1` gave a log(1/C) of 6.8.

As to `Nc1nc(O)c2ccc(C(F)(F)F)cc2n1`, the log(1/C) turned out to be 4.35.

In turn, `Nc1nc(N)c2c(Cl)c(NC(=O)Cc3ccc(Cl)cc3)ccc2n1` displayed a log(1/C) of 7.92.

As for `Nc1nc(O)nc2ccc(Sc3ccc4ccccc4c3)cc12`, the log(1/C) stood at 5.77.

In turn, `CC(=O)Nc1nc(O)c2cc(S(=O)(=O)c3ccc4ccccc4c3)ccc2n1` displayed a log(1/C) of 6.11.

Consider `Nc1nc(N)c2c(CSc3ccc(Cl)cc3)cccc2n1`, for which the log(1/C) is 7.7.

The compound `Nc1nc(N)c2cc(Sc3ccc4ccccc4c3)ccc2n1` had a log(1/C) of 8.15.

The compound `Oc1nc(S)nc2ccc(Sc3ccc4ccccc4c3)cc12` displayed a log(1/C) of 5.

The compound `Nc1nc(N)c2c(Cl)c(NC(=O)Cc3ccc(Cl)c(Cl)c3)ccc2n1` had a log(1/C) of 7.62.

Compound `Cc1c(NC(=O)COc2ccc3ccccc3c2)ccc2nc(N)nc(N)c12` showed a log(1/C) of 7.82.

In turn, `Cc1ccc2nc(N)nc(O)c2c1` returned a log(1/C) of 4.44.

`Nc1nc(O)c2c(Cl)cccc2n1` returned a log(1/C) of 4.66.

`NCc1ccc2nc(N)nc(N)c2c1`: the log(1/C) was 5.03.

For the compound `O=c1[nH]c(=O)c2cc(Sc3ccc4ccccc4c3)ccc2[nH]1`, the log(1/C) was found to be 5.07.

The compound `Cc1cccc2nc(N)nc(O)c12` yielded a log(1/C) of 4.8.

With `Cc1c(NC(=O)Cc2ccc3ccccc3c2)ccc2nc(N)nc(N)c12`, the log(1/C) is 8.38.

Take `Nc1nc(N)c2c([S+]([O-])c3ccc4ccccc4c3)cccc2n1` (stereo unspecified): the log(1/C) amounted to 4.35.

`Nc1nc(O)c2c(S(=O)(=O)c3ccc4ccccc4c3)cccc2n1` returned a log(1/C) of 4.85.

With `Cc1ccc2nc(N)nc(N)c2c1`, the log(1/C) was 5.66.

`Nc1nc(O)c2cc(S(=O)(=O)c3ccc4ccccc4c3)ccc2n1`: the log(1/C) amounted to 7.96.

In turn, `Nc1nc(N)c2cc(Sc3cccc(C(F)(F)F)c3)ccc2n1` registered a log(1/C) of 7.44.

Compound `Nc1nc(N)c2c([S+]([O-])c3ccc(Cl)c(Cl)c3)cccc2n1` (stereo unspecified) showed a log(1/C) of 4.26.

Take `Nc1nc(N)c2cc(NC(=O)Cc3ccc(Cl)cc3)ccc2n1`: the log(1/C) came to 7.64.

`Nc1nc(N)c2c(S(=O)(=O)c3ccc(Cl)c(Cl)c3)cccc2n1` had a log(1/C) of 4.24.

As for `Nc1nc(N)c2c(CCc3ccc4ccccc4c3)cccc2n1`, the log(1/C) came out at 7.7.

The compound `Nc1nc(N)c2cc(CNC(=O)c3ccc(Cl)c(Cl)c3)ccc2n1` had a log(1/C) of 7.

On to `Nc1ncnc2ccc([S+]([O-])c3ccc4ccccc4c3)cc12` (stereo unspecified), for which the log(1/C) was 4.82.

Consider `Nc1ncnc2ccccc12`, for which the log(1/C) was found to be 3.09.

Regarding `Nc1nc(N)c2c(Cl)c(NC(=O)Cc3cccc(Br)c3)ccc2n1`, the log(1/C) came out at 8.12.

In turn, `Nc1nc(S)nc2ccccc12` came in with a log(1/C) of 3.72.

As to `Nc1nc(S)c2cc(Sc3ccc4ccccc4c3)ccc2n1`, the log(1/C) is 6.64.

`Nc1ncnc2ccc(S(=O)(=O)c3ccc4ccccc4c3)cc12` gave a log(1/C) of 5.47.

With `Nc1nc(N)c2cc(CNC(=O)c3ccc4ccccc4c3)ccc2n1`, the log(1/C) was 7.

The compound `Nc1nc(O)c2cc([S+]([O-])c3ccc4ccccc4c3)ccc2n1` (stereo unspecified) showed a log(1/C) of 7.38.

Regarding `c1ccc2ncncc2c1`, the log(1/C) worked out at 2.26.

`Nc1nc(N)c2c(Sc3ccc4ccccc4c3)cccc2n1` registered a log(1/C) of 6.92.

`Nc1nc(S)c2cc(S(=O)(=O)c3ccc4ccccc4c3)ccc2n1`: the log(1/C) worked out at 7.6.

Take `Nc1nc(N)c2c(Cl)c(NC(=O)Cc3ccc4ccccc4c3)ccc2n1`: the log(1/C) was 8.3.

`Cc1c(NC(=O)CCc2ccc(Cl)cc2)ccc2nc(N)nc(N)c12` returned a log(1/C) of 7.48.

On to `Nc1ccc2nc(N)nc(N)c2c1`, for which the log(1/C) amounted to 4.57.

Turning to `O=c1[nH]cnc2ccccc12`, the log(1/C) worked out at 3.62.

On to `Nc1nc(N)c2cc(NC(=O)Cc3cccc(C(F)(F)F)c3)ccc2n1`, for which the log(1/C) was 7.02.

As for `Nc1nc(N)c2c(n1)CCCC2`, the log(1/C) came to 5.13.

`Nc1nc(N)c2c(Cl)c(NC(=O)COc3ccc4ccccc4c3)ccc2n1` displayed a log(1/C) of 7.85.

For `Nc1nc(N)c2cc(Cl)ccc2n1`, the log(1/C) came to 5.4.

Consider `Nc1nc(N)c2c(Cl)cccc2n1`, for which the log(1/C) amounted to 6.25.

`Nc1nc(S)c2ccccc2n1` came in with a log(1/C) of 4.37.

Consider `Nc1nc(N)c2cc([S+]([O-])c3ccc4ccccc4c3)ccc2n1` (stereo unspecified), for which the log(1/C) came to 8.15.

Turning to `Nc1nc(N)c2cc(NC(=O)Cc3ccc4ccccc4c3)ccc2n1`, the log(1/C) was determined as 8.3.

`Nc1nc(O)c2c(n1)CCCC2` yielded a log(1/C) of 3.96.

In the case of `Nc1nc(N)c2c(Cl)c(NC(=O)Cc3cccc(C(F)(F)F)c3)ccc2n1`, the log(1/C) was found to be 7.64.

In turn, `CC(=O)Nc1nc(O)c2ccccc2n1` returned a log(1/C) of 4.28.

Consider `Nc1nc(N)c2cc(CNC(=O)c3cccc(C(F)(F)F)c3)ccc2n1`, for which the log(1/C) came to 6.59.

`Nc1nc(N)c2cc(S(=O)(=O)c3ccc4ccccc4c3)ccc2n1` gave a log(1/C) of 8.4.

In turn, `CC1CCc2nc(N)nc(O)c2C1` (stereo unspecified) yielded a log(1/C) of 4.26.

Turning to `Nc1nc(N)c2c(Cl)c(Br)ccc2n1`, the log(1/C) amounted to 7.

In turn, `Nc1nc(N)c2c(Cl)c(NC(=O)COc3ccc(Cl)c(Cl)c3)ccc2n1` returned a log(1/C) of 7.64.

As for `O=c1[nH]c(=S)c2cc(Sc3ccc4ccccc4c3)ccc2[nH]1`, the log(1/C) is 5.24.

Consider `Nc1nc(O)c2cc(Sc3ccc4ccccc4c3)ccc2n1`, for which the log(1/C) came out at 7.35.

Regarding `CC(C(=O)Nc1ccc2nc(N)nc(N)c2c1Cl)c1ccccc1` (stereo unspecified), the log(1/C) came to 7.77.

As for `Nc1nc(O)c2c(Sc3ccc4ccccc4c3)cccc2n1`, the log(1/C) came to 6.15.

In the case of `Nc1nc(N)c2c(Cl)c(N)ccc2n1`, the log(1/C) stood at 6.18.

Regarding `Cc1c(NC(=O)Cc2ccc(Cl)c(Cl)c2)ccc2nc(N)nc(N)c12`, the log(1/C) was 7.77.

Take `Nc1nc(N)c2cc(S(=O)(=O)c3ccc(Cl)c(Cl)c3)ccc2n1`: the log(1/C) was 8.05.

Compound `Nc1ncnc2ccc(Sc3ccc4ccccc4c3)cc12` returned a log(1/C) of 4.68.

Take `Nc1nc(O)nc2ccccc12`: the log(1/C) was 4.02.

Take `Nc1nc(O)c2cc(S(=O)(=O)c3ccc(Cl)c(Cl)c3)ccc2n1`: the log(1/C) was 7.12.

For the compound `Nc1nc2ccccc2c(=O)[nH]1`, the log(1/C) came out at 4.31.

On to `Nc1nc(N)c2cc(NC(=O)CCc3ccc(Cl)cc3)ccc2n1`, for which the log(1/C) is 7.33.

On to `Cc1c(NC(=O)Cc2cccc(Br)c2)ccc2nc(N)nc(N)c12`, for which the log(1/C) stood at 7.47.

Regarding `Cc1c(NC(=O)Cc2ccc(Br)cc2)ccc2nc(N)nc(N)c12`, the log(1/C) came out at 7.49.

Consider `Nc1nc(N)c2c(Cl)c(NC(=O)CCc3ccc(Cl)cc3)ccc2n1`, for which the log(1/C) came out at 7.44.

Take `Cc1c(NC(=O)Cc2cccc(C(F)(F)F)c2)ccc2nc(N)nc(N)c12`: the log(1/C) turned out to be 7.23.

In turn, `Nc1nc(O)c2cc(Sc3ccc(Cl)c(Cl)c3)ccc2n1` registered a log(1/C) of 6.92.

On to `Nc1nc(N)c2c(S(=O)(=O)c3ccc4ccccc4c3)cccc2n1`, for which the log(1/C) worked out at 4.82.

Regarding `Sc1nc(S)c2cc(Sc3ccc4ccccc4c3)ccc2n1`, the log(1/C) came out at 5.05.

The compound `Nc1nc(N)c2cc(NC(=O)Cc3ccc(Cl)c(Cl)c3)ccc2n1` showed a log(1/C) of 7.51.

As to `Cc1c(NC(=O)CSc2ccc3ccccc3c2)ccc2nc(N)nc(N)c12`, the log(1/C) turned out to be 8.27.

`Cc1cccc2nc(N)nc(N)c12` showed a log(1/C) of 6.09.

On to `Nc1nc(N)c2cc(Sc3ccc(Cl)c(Cl)c3)ccc2n1`, for which the log(1/C) came out at 7.96.

In turn, `Nc1nc(N)c2c(/C=C/c3ccc4ccccc4c3)cccc2n1` yielded a log(1/C) of 5.28.

Regarding `Nc1nc(N)c2cc(C=O)ccc2n1`, the log(1/C) was 5.

Source of the values: ChEMBL document CHEMBL3272031, “Inhibition of dihydrofolate reductase. Structure-activity correlations of quinazolines” (J Med Chem, 1976).
